“Also recorded” adds a separate entry of the source.
Key:
[1] = target: T1, SHP2cat (Homo sapiens, UniProt Q06124); experiment: Jump-dilution inhibition assay; type: biochemical; settings: 10× preincubation 10 min, 10× jump dilution
T1 construct: the SHP2 catalytic domain (SHP2cat; residues 248–527); made in house
T1 sequence (Q06124 248-527): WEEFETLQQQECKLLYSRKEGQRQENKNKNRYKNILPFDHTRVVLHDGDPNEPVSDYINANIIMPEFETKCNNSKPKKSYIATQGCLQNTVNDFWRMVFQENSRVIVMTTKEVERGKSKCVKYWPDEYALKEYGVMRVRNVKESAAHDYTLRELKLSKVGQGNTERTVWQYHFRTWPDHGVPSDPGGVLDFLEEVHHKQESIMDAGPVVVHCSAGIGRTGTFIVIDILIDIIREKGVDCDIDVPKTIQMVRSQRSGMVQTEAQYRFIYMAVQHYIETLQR
Experimental: PTPs contain a highly nucleophilic cysteine that is essential for catalytic activity but is susceptible to oxidation and covalent modifications, which abrogate its nucleophilic function and phosphatase activity ([26]). Because the methylenebenzothiophenone moiety of our inhibitors could potentially act as a Michael acceptor and thus covalently bind to the catalytic cysteine, we tested whether the observed inhibition of SHP2 was dependent on the preincubation time of inhibitor and enzyme. An irreversible covalent inhibitor may show time-dependent inhibition, with increased potency at longer incubation times. […] To test for time-dependent inhibition, SBI-2130 at ten different concentrations was preincubated with SHP2-E76K for 1, 5, 10, 20, or 60 min, before the DiFMUP substrate was added to the reaction mixture and initial rates were recorded (Fig. 3C). […]
SBI-2130 was tested for reversibility of inhibition in a jump-dilution experiment using SHP2cat. […] The enzyme reaction was started by the addition of 5 μl of DiFMUP working solution (100 μM in 50 mM Bis–Tris, pH 6.0, 50 mM NaCl, 0.5 mM EDTA, and 0.01% Tween-20), and fluorescence intensity was measured in kinetic mode (every minute for 10 min) using a Tecan Spark Multimode Microplate Reader as described previously. […] The initial rates were determined from the linear progression curves of the SHP2cat reaction. […]

[2] = test system: phospho-ERK1/2 (p-ERK1/2) in MOLM-13 AML cells; experiment: p-ERK1/2 immunoblot, MOLM-13; type: cell-based; settings: SBI-4668 3, 10, 30 μM, RMC-4550 1 μM
Experimental: Because SHP2 activity is critical for ERK activation, we used phospho-ERK1/2 (p-ERK1/2) as a more direct readout of SHP2 inhibitor efficacy. […] This p-ERK rebound in MOLM-13 cells treated with RMC-4550 is reminiscent of previously reported data from human hepatoma Hep3B cells treated with SHP099 ([34]). We also tested the effects of SBI-4668 or RMC-4550 on two patient-derived AML samples (Fig. 4F).
Cells cultured in RPMI medium were treated as indicated in the legends to the figures. Total protein extracts were prepared in modified radioimmunoprecipitation assay lysis buffer (25 mM Tris–HCl, pH 7.4, 10% glycerol, 0.2% Triton X-100, 150 mM NaCl, 2 mM Na3VO4, and 1 mM EDTA) containing a protease inhibitor cocktail (Roche Applied Science). Equal amounts of protein were separated on 4 to 12% (p-ERK1/2 blots) or 4 to 20% (SHP2 blots) Bis–Tris gels by SDS-PAGE and transferred to nitrocellulose (p-ERK1/2 blots) or 0.2 μm polyvinylidene fluoride (SHP2 blots) membranes. Membranes were blocked in 5% dry milk (Bio-Rad) in Tris-buffered saline–Tween-20 (TBS–T) (0.1% v/v) for 1 h at RT. Protein-bound membranes were incubated with indicated primary antibody overnight at 4 °C. After washing three times with TBS-T, membranes were incubated for 1 h with horseradish peroxidase–conjugated secondary antibody and then visualized by an ECL Prime detection system (GE Healthcare). Immunoblotting experiments were carried out at least three times, and representative images are shown. Densitometric quantitation of immunoblots was performed using Image Studio Lite Software (LI-COR). Changes of phosphorylated ERK1/2 to total ERK1/2 ratios are expressed as percentage of the vehicle-treated controls. The following antibodies were used: Phospho-Erk1/2 Ab (catalog no.: 9101S; Cell Signaling); total Erk1/2 Ab (catalog no.: 9102S; Cell Signaling); SHP2 Ab (catalog no.: A301-544A; lot no.: 1; Bethyl); and GAPDH (14C10) mAb (catalog no.: 2118S; lot no.: 14; Cell Signaling).

[3] = target: T1, SHP2cat; experiment: Mass spectrometry test for inhibitor:protein adducts; settings: SHP2cat 5 μM, inhibitor 100 μM, 1-60 min
Experimental: PTPs contain a highly nucleophilic cysteine that is essential for catalytic activity but is susceptible to oxidation and covalent modifications, which abrogate its nucleophilic function and phosphatase activity ([26]). Because the methylenebenzothiophenone moiety of our inhibitors could potentially act as a Michael acceptor and thus covalently bind to the catalytic cysteine, we tested whether the observed inhibition of SHP2 was dependent on the preincubation time of inhibitor and enzyme. An irreversible covalent inhibitor may show time-dependent inhibition, with increased potency at longer incubation times. Conversely, the potency of a noncovalent inhibitor is expected to be insensitive to the time it is incubated with the enzyme. To test for time-dependent inhibition, SBI-2130 at ten different concentrations was preincubated with SHP2-E76K for 1, 5, 10, 20, or 60 min, before the DiFMUP substrate was added to the reaction mixture and initial rates were recorded (Fig. 3C). […] In addition, we used mass spectrometry to test whether inhibitor:protein adducts are being formed. Specifically, we incubated SHP2cat (5 μM) with SBI-4668 (100 μM) in assay buffer for various times (1, 5, 20, and 60 min) before trypsin proteolysis and subsequent mass spectrometry analysis. […] Finally, we performed a jump-dilution experiment to test for irreversible inhibition of SHP2. […]

Row | Structure (SMILES) | reversibility: IC50 curves jump dilution vs regular dose–response [1] | p-ERK1/2 levels, MOLM-13, 3 h ([2]; 3 h) | p-ERK1/2 levels, MOLM-13, 24 h ([2]; 24 h) | inhibitor:protein adduct formation (mass spectrometry) [3]
1 | Nc1ccc(NC(=O)c2cc(-c3ccc(/C=C4\Sc5ccccc5C4=O)o3)ccc2O)cc1 [SBI-2130, (Z)-N-(4-Aminophenyl)-2-hydroxy-5-(5-((3-oxobenzo[b]thiophen-2(3H)-ylidene)methyl)furan-2-yl)benzamide] | reversible inhibitor; also recorded: practically identical |  |  | 
2 | O=C(Nc1ccccc1)c1cc(-c2ccc(/C=C3\Sc4ccccc4C3=O)o2)ccc1O [SBI-4668, (Z)-2-Hydroxy-5-(5-((3-oxobenzo[b]thiophen-2(3H)-ylidene)methyl)furan-2-yl)-N-phenylbenzamide] |  | dose-dependently inhibits ERK1/2 activation | dose-dependently inhibits ERK1/2 activation | no adduct formation

Reference: article PMC8760490, “Discovery of novel furanylbenzamide inhibitors that target oncogenic tyrosine phosphatase SHP2 in leukemia cells” (The Journal of Biological Chemistry, 2021)
